TC and TG data for 2 compounds are collected here from ChEMBL document CHEMBL1144356 (J Med Chem, 2005).

Assay [1] has as its system Canis familiaris. The assay can be described thus: Effect on cholesterol lowering in male Beagle dog at an oral dose of 50 mkd for 15 days. Format: functional, Canis lupus familiaris.
Assay [2] relates to Canis familiaris. In words: Effect on cholesterol lowering in male Beagle dog at an oral dose of 50 mkd for 3 days. Format: functional, Canis lupus familiaris.
In assay [3] the test system is Cricetinae gen. sp. The assay can be described thus: Effect at an oral dose of 100 mg/kg/day for 14 days on serum triglyceride level of hamster. Format: functional, Cricetulus griseus.
In assay [4] the test system is Canis familiaris. The assay can be described thus: Effect on cholesterol lowering in male Beagle dog at an oral dose of 50 mkd for 7 days. It counts as functional, Canis lupus familiaris.
Assay [5] concerns Cricetinae gen. sp. In words: Effect at an oral dose of 100 mg/kg/day for 14 days on serum cholesterol level of hamster. It counts as functional, Cricetulus griseus.
Assay [6] relates to Canis familiaris. The assay can be described thus: Effect on cholesterol lowering in male Beagle dog at an oral dose of 50 mkd for 10 days. It counts as functional, Canis lupus familiaris.
Assay [7] relates to Canis familiaris. In words: Effect on cholesterol lowering in male Beagle dog at an oral dose of 4 mkd for 15 days. Format: functional, Canis lupus familiaris.
Assay [8] concerns Canis familiaris. In words: Effect on cholesterol lowering in male Beagle dog at an oral dose of 4 mkd for 7 days. It counts as functional, Canis lupus familiaris.
Assay [9] relates to Canis familiaris. In words: Effect on cholesterol lowering in male Beagle dog at an oral dose of 4 mkd for 10 days. It counts as functional, Canis lupus familiaris.
Assay [10] relates to Canis familiaris. The assay can be described thus: Effect on cholesterol lowering in male Beagle dog at an oral dose of 4 mkd for 3 days. It counts as functional, Canis lupus familiaris.

Consider `CC(C)OC(=O)C(C)(C)Oc1ccc(C(=O)c2ccc(Cl)cc2)cc1` [FENOFIBRATE], for which the TC is -12.3% in the assay with Canis familiaris [1]; -2.2% with Canis familiaris [2]; -5.5% in the assay with Canis familiaris [4]; -28.55% in the assay with Cricetinae gen. sp. [5]; -5.9% in the assay with Canis familiaris [6]. Besides, in the assay with Cricetinae gen. sp. [3], the TG is recorded as -24.08%.
Regarding `CCC(C)(C)C(=O)O[C@H]1C[C@@H](C)C=C2C=C[C@H](C)[C@H](CC[C@@H]3C[C@@H](O)CC(=O)O3)[C@H]21` [SIMVASTATIN], the TC in the assay on Canis familiaris [7] is listed as -17.1%; in the assay on Canis familiaris [8], -13.3%; in the assay on Canis familiaris [9] it was -9.9%; with Canis familiaris [10], -7.8%.
